One assay deals with P. acnes NCTC 737. The assay is described as follows: Synthetic sebum time-to-kill assay. It counts as cell-based, Propionibacterium acnes. The note with it: 49 μg/mL Cu usnate (equivalent). The method, then:
This quantitative assay was designed to assess the level of kill of a P. acnes culture in a synthetic sebum (non-aqueous environment) over a defined time period, in this case 4 hours. A culture of P. acnes NCTC 737 was inoculated into a synthetic sebum (a liquid mixture of lipid components designed to simulate human sebum) containing the relevant test compound or formulation diluted in 1-octanol. From this culture, samples were taken after 4 hours, 10-fold serially diluted in wash fluid (0.075 M sodium phosphate buffer, pH 7.9, 0.1% v/v Triton™-X 100) and inoculated onto agar plates (in triplicate). The plates were then incubated as described above and subsequently examined visually for growth. The numbers of viable microbial colonies on the plates were counted with the aid of a colony counter and converted to colony-forming units per ml (cfu/ml) using the appropriate dilution factor. Cell counts conducted in the absence of formulations (but still in the presence of 1-octanol) acted as positive controls. All experiments were conducted in triplicate.

The subject of assay [1] is Corynebacterium striatum NCTC 764. The assay is described as follows: MBC against Corynebacterium striatum. It is filed as cell-based.
In assay [2] the test system is Propionibacterium acnes NCTC 737. The assay is described as follows: Minimum biocidal concentration (MBC) assay. It is filed as cell-based. As to conditions: P. acnes NCTC 737. The method, then:
(§1) The test organism used was Propionibacterium acnes NCTC 737. This is a propionibacterial strain and is the type strain of the […]; it is fully susceptible to antibiotics. The propionibacteria are clinically significant due to their involvement in acne. They are also opportunistic pathogens in compromised hosts. Activity observed against these micro-organisms is expected to be a good predictor of activity against acne.
(§2) The propionibacteria were cultured and maintained on Wilkins-Chalgren Anaerobe Medium (agar and broth) at pH 6.0; all cultures were incubated anaerobically at 37° C. for 72 hours.
This assay, normally carried out after an MIC assay, determines the minimum concentration of a compound or formulation that is lethal to the test micro-organism.
These samples were then individually sub-cultured on antibiotic-free agar medium, under the incubation conditions described above. Following incubation they were examined visually for microbial growth.
The ratio of MIC to MBC should ideally be as close to 1 as possible. This facilitates selection of the lowest possible effective concentration of a test compound or formulation, with a reduced risk of selecting a sub-lethal concentration which could promote resistance or allow the target microbial population to recover.

Assay [3] concerns S. aureus ATCC 29213. The assay is described as follows: MIC against S. aureus. It counts as cell-based.
In assay [4] the test system is S. aureus ATCC 29213. Nature of the assay: MBC against S. aureus. It counts as cell-based.
In assay [5] the test system is Corynebacterium striatum NCTC 764. Nature of the assay: MIC against Corynebacterium striatum. It counts as cell-based.
Assay [6] relates to Propionibacterium acnes NCTC 737. The assay is described as follows: Minimum inhibitory concentration (MIC) assay. It counts as cell-based. The note with it: P. acnes NCTC 737. On the procedure:
as §1, §2
This is a standard international method for quantitatively assessing the antimicrobial activity of a compound/formulation in a liquid medium. The method used a sterile 96-well microtitre plate, capable of holding about 200 μl of liquid per well. The wells contained liquid culture medium and ranges of decreasing concentrations of the relevant test compound/formulation (in this case reported as the relative concentration of the active molecule—copper usnate—in the formulations) in doubling dilutions (eg 1000, 500, 250, 125 . . . μg/ml, etc, down to 0.49 μg/ml). The culture media were as described above.
The wells were inoculated with a liquid suspension of freshly grown micro-organism and incubated under the conditions described above. After incubation, the microtitre plate was examined visually for cloudiness in each well, which would indicate microbial growth. The MIC value was recorded as the lowest concentration of test compound/formulation required to inhibit microbial growth, ie the lowest concentration for which the liquid in the well remained clear.
The assays included both negative (culture medium with no micro-organisms) and positive (culture medium plus diluting solvent plus micro-organism) controls.

What is called MBC is the lowest tested concentration that kills the bacteria rather than only halting them. By MIC is commonly meant the lowest concentration found to suppress growth.

SMILES strings stand for the structures. Marks after values point to notes of the source that are not given here.

Consider `CC(=O)c1c([O-])c(C)c([O-])c2c1OC1=CC(=O)C(C(C)=O)C(=O)C12C.[Cu+2]` (stereo not drawn) [Copper usnate, copper (II) di-usnate], for which the “Log10 cfu/ml (T0 hours)” value with P. acnes NCTC 737 (T0 hours) is 7.97 Log10 cfu/ml. For the same molecule, the Log10 change in the assay with P. acnes NCTC 737 (T0 to T4 hours) was −4.97 Log10. Moreover, the “Log10 cfu/ml (T4 hours)” value in the assay on P. acnes NCTC 737 (T4 hours, lowest detectable level = 3.0 Log10 cfu/ml) is recorded as ≤ 3.0* Log10 cfu/ml. In addition, the minimal bactericidal concentration (MBC) in assay [1] was found to be 62.5 µg/mL; in assay [2] (Example 13, formulations as Cu usnate equivalent), 0.98 µg/mL; in the assay on S. aureus ATCC 29213 [4] it was 62.5 µg/mL. In addition, the “minimum biocidal concentration (MBC)” value in assay [2] (found by the present inventors) was determined as 3.9 µg/mL. The MIC against S. aureus ATCC 29213 [3] is 7.8 µg/mL; in assay [5] it was 3.9 µg/mL; in assay [6] (Example 13, formulations as Cu usnate equivalent, anaerobic 37° C. 72 hours) it was 0.24 µg/mL. Besides, the “MIC:MBC ratio” value in assay [6] (Example 13) amounted to 0.25. Besides, the “minimum inhibitory concentration (MIC)” value in assay [6] (found by the present inventors) was found to be 0.49 µg/mL.

The values are drawn from patent US20140057976A1, “USNIC ACID TOPICAL FORMULATION” (EVOCUTIS PLC, priority 2011, published 2014).
